Results: publication PMC9653409, “Generative deep learning enables the discovery of a potent and selective RIPK1 inhibitor” (Nature Communications, 2022)
Where “and” joins values, the source holds several entries; their conditions need not be identical. Identical values can stand only once.

Tests used:
pRIPK1, pRIPK3, pMLKL = experiment: DSS-induced IBD mouse model: colon western blot; type: in vivo, C57BL/6 female mice; settings: 40 mg/kg i.p., day 7
Experimental: The liver in the SIRS model and the colon in the IBD model were harvested, homogenated and sonicated in RIPA lysis buffer.
The cell proteins or tissue proteins were separated in a polyacrylamide gel and transferred to a methanol-activated polyvinylidene fluoride membrane. The membrane was blocked for 2 h in Tris-buffered saline plus Tween-20 containing 5% milk and then immunoblotted sequentially with primary and secondary antibodies. Detection was performed with an ECL chemiluminescence kit (Abbkine). The antibodies used were human RIPK1 antibody (R&D, 334640, 1:1000), mouse RIPK1 antibody (Affinity, DF2642, 1:1000), human phospho-RIP (Ser166) rabbit mAb (Cell Signaling Technologies, 65746, 1:1000), mouse phospho-RIP (Ser321) rabbit mAb (Cell Signaling Technologies, 38662, 1:1000), human RIPK3 (B-2) antibody (Santa Cruz, sc-374639, 1:250), mouse RIPK3 antibody (Abcam, ab62344, 1:1000), human anti-RIP3 (phospho S227) antibody (Abcam, ab209384, 1:2000), mouse anti-RIP3 (phospho T231 + S232) antibody (Abcam, ab205421, 1:500), anti-MLKL (58–70) antibody (Sigma, M6697, 1:250), human anti-MLKL (phospho S358) antibody (Abcam, ab187091, 1:1000), mouse anti-MLKL (phospho S345) antibody (Abcam, ab196436, 1:1000), and β-actin (Proteintech, 66009-1-Ig, 1:1000).

[1] = C57B6, mouse, in vivo
TNFα-induced SIRS [2] = experiment: TNFα-induced SIRS mouse model: body temperature loss; type: in vivo, C57BL/6 female mice; settings: for ΔTemperature Average: group average
Experimental: The body temperatures of the mice were continuously monitored until 6 h after TNFα administration. At 6 h after TNFα injection, four mice in each group were killed at random, and the serums, heart, liver, spleen, lung, and kidney tissues were collected for analysis.

HT29 cells [3] = experiment: Dual staining with CytoCalcein Violet 450 and 7-AAD after TSZ; type: cell-based; settings: for Dead cell ratio (%): TSZ 24 h, replicates 1-4
Experimental: The assay of dual staining with CytoCalcein Violet 450 and 7-AAD was performed in a 24-well cell culture plate. Cells were plated in each well and cultured at 37 °C overnight. […] Then use CytoCalcein Violet 450 and 7-AAD to double stain the HT29 cells and observe under the microscope. All images were acquired with an Eclipse Ci-L microscope (Nikon, Japan). The dead cells were measured with Image J software, and the data was analyzed with GraphPad software. The experiment was repeated three times.

L929 cells = experiment: TZ-induced L929 cell necroptosis model (CCK8); type: cell-based; settings: Mus musculus
Experimental: (§1) Cell necroptosis protection assays were performed in 96-well cell culture plates. Cells were plated in each well and cultured at 37 °C overnight. […] The cell survival rate was determined using a CCK8 cell viability assay kit and CLARIOstar (v5.61). […] All experiments were performed at least two times, and each EC50 value was expressed as mean ± standard deviation (SD).

TNFα = experiment: DSS-induced IBD mouse model: TNFα in cultured colon supernatant (ELISA); type: in vivo, C57BL/6 female mice
Experimental: (§2) DSS (3% w/v) was administered in drinking water ad libitum for 7 d (from day 0 to day 7). DSS solution was replaced three times on day 2, day 4, and day 6. […] Three mice in each group were killed at random on day 7, and distal colon tissues were collected for analysis. The mice weight and survival rate were recorded daily.
(§3) In the TNFα-induced SIRS model, at 6 h after TNFα injection, four mice in each group were killed at random, and the serums were collected, the serum concentrations of IL-1β and IL-6 were measured using ELISA kits (Neobioscience Technology) according to manufacturer’s instructions. […] The supernatant was collected by sequential centrifugation at 500 × g for 10 min and 3000 × g for 10 min. The concentrations of cytokines TNFα, IL-6, and IL-1β were measured using ELISA kits (Neobioscience Technology).

HT29 cells [4] = experiment: TSZ-induced HT29 cell necroptosis model (CCK8); type: cell-based; settings: Homo sapiens, HT-29
Experimental: as §1

TNFα-induced SIRS [5] = experiment: TNFα-induced SIRS mouse model: survival; type: in vivo, C57BL/6 female mice
IL-1β = experiment: DSS-induced IBD mouse model: IL-1β in cultured colon supernatant (ELISA); type: in vivo, C57BL/6 female mice
Experimental: as §2, §3

[6] = Maximum tolerated dose study in mice
[7] = 0 h after mTNFα, individual mice

Q: Which “levels of pRIPK1, pRIPK3, and pMLKL in the colon” value (pRIPK1, pRIPK3, pMLKL) does the source give for `CC(C)C(=O)Nc1nc2cc(-c3ccc4c(c3)c(C(=O)NC(C)c3ccccc3)cn4C)ccn2n1` (centres unmarked) [RI-962] here?
A: Its value is “reduced the levels of pRIPK1, pRIPK3, and pMLKL proteins”.

Q: And the doses well tolerated [1]?
A: Its doses well tolerated is “up to 250 mg/kg”.

Q: What about the “ΔTemperature Average” value (TNFα-induced SIRS [2]; 0 h after mTNFα) of the same molecule?
A: The value was 0 °C.

Q: And the Temperature (TNFα-induced SIRS [2]; [7])?
A: Its Temperature is 36.3 °C (4×) and 36.5 °C (3×) and 36.2 °C (5×) and 36.6 °C (2×).

Q: What about the ΔTemperature (TNFα-induced SIRS [2]; [7]) of the same molecule?
A: Its ΔTemperature is 0 °C.

Q: What about the TNFα-induced temperature loss (TNFα-induced SIRS [2]; 40 mg/kg i.p.) of the same molecule?
A: Its TNFα-induced temperature loss is “remarkably reduced”.

Q: And the “ΔTemperature Average” value (TNFα-induced SIRS [2]; 1 h after mTNFα)?
A: Its value is -0.06429 °C.

Q: And the Temperature (TNFα-induced SIRS [2]; 1 h after mTNFα, individual mice)?
A: The Temperature was 36.3 °C (5×) and 36.2 °C (5×) and 36.1 °C and 36.5 °C (2×) and 36.4 °C.

Q: What about the “ΔTemperature Average” value (TNFα-induced SIRS [2]; 2 h after mTNFα) of the same molecule?
A: The value was 0.05 °C.

Q: What about the Temperature (TNFα-induced SIRS [2]; 2 h after mTNFα, individual mice) of the same molecule?
A: Its Temperature is 36.3 °C (7×) and 36.4 °C and 36.5 °C (5×) and 36.6 °C.

Q: And the “ΔTemperature Average” value (TNFα-induced SIRS [2]; 3 h after mTNFα)?
A: The value was 0.01429 °C.

Q: And the Temperature (TNFα-induced SIRS [2]; 3 h after mTNFα, individual mice)?
A: Its Temperature is 36.3 °C (6×) and 36.4 °C (4×) and 36.5 °C (3×) and 36.2 °C.

Q: What about the “ΔTemperature Average” value (TNFα-induced SIRS [2]; 4 h after mTNFα) of the same molecule?
A: The value was 0.007143 °C.

Q: What about the Temperature (TNFα-induced SIRS [2]; 4 h after mTNFα, individual mice) of the same molecule?
A: The Temperature was 36.2 °C (2×) and 36.5 °C (4×) and 36.4 °C (2×) and 36.3 °C (6×).

Q: And the “ΔTemperature Average” value (TNFα-induced SIRS [2]; 5 h after mTNFα)?
A: The value was -0.02143 °C.

Q: And the Temperature (TNFα-induced SIRS [2]; 5 h after mTNFα, individual mice)?
A: Its Temperature is 36.3 °C (7×) and 36.4 °C (3×) and 36.1 °C and 36.5 °C (2×) and 36.2 °C.

Q: What about the “ΔTemperature Average” value (TNFα-induced SIRS [2]; 6 h after mTNFα) of the same molecule?
A: The value was -0.1571 °C.

Q: And the Temperature (TNFα-induced SIRS [2]; 6 h after mTNFα, individual mice)?
A: Its Temperature is 36.3 °C (8×) and 36.4 °C and 35.9 °C (3×) and 36 °C and 36.2 °C.

Q: What about the “Dead cell ratio (%)” value (HT29 cells [3]; 3 nM) of the same molecule?
A: The value was 15.55% and 9.32% and 10.06% and 11.13%.

Q: What about the “Dead cell ratio (%)” value (HT29 cells [3]; 10 nM, listed as RI-963) of the same molecule?
A: Its value is 9.02% and 6.38% and 5.61% and 6.01%.

Q: And the “TSZ-induced necroptosis, dual staining” value (HT29 cells [3]; HT29, 24 h)?
A: Its value is “inhibited TSZ-induced necroptosis and improved cell survival in a concentration-dependent manner”.

Q: What about the viability at 56 pM (L929 cells; L929, 0.000056 μM) of the same molecule?
A: The viability at 56 pM was 19.1%.

Q: What about the viability at 0.000169 µM (L929 cells; L929, 0.000169 μM) of the same molecule?
A: The viability at 0.000169 µM was 22.9%.

Q: And the viability at 0.000508 µM (L929 cells; L929, 0.000508 μM)?
A: Its viability at 0.000508 µM is 24.8%.

Q: What about the viability at 0.001524 µM (L929 cells; L929, 0.001524 μM) of the same molecule?
A: The viability at 0.001524 µM was 35.2%.

Q: And the viability at 0.004572 µM (L929 cells; L929, 0.004572 μM)?
A: The viability at 0.004572 µM was 62.2%.

Q: What about the viability at 0.013717 µM (L929 cells; L929, 0.013717 μM) of the same molecule?
A: Its viability at 0.013717 µM is 83.1%.

Q: What about the viability at 0.041152 µM (L929 cells; L929, 0.041152 μM) of the same molecule?
A: The viability at 0.041152 µM was 89.4%.

Q: And the viability at 0.123457 µM (L929 cells; L929, 0.123457 μM)?
A: Its viability at 0.123457 µM is 105%.

Q: What about the viability at 0.37037 µM (L929 cells; L929, 0.370370 μM) of the same molecule?
A: The viability at 0.37037 µM was 98.5%.

Q: And the viability at 1.11111 µM (L929 cells; L929, 1.111111 μM)?
A: The viability at 1.11111 µM was 103%.

Q: And the viability at 3.33333 µM (L929 cells; L929, 3.333333 μM)?
A: The viability at 3.33333 µM was 99.1%.

Q: What about the viability at 10 µM (L929 cells; L929, 10.000000 μM) of the same molecule?
A: The viability at 10 µM was 91.6%.

Q: What about the EC50 (L929 cells; L929 treated with TZ, 24 h) of the same molecule?
A: The EC50 was 4.2 nM.

Q: And the “content of TNFα in cultured colonic tissue supernatants” value (TNFα; 40 mg/kg i.p., day 7)?
A: The value was “substantially reduced”.

Q: What about the TNFα (TNFα; Figure 9g, individual replicates 1-3) of the same molecule?
A: Its TNFα is 139.9 pg/mL and 111.6 pg/mL and 109.1 pg/mL.

Q: What about the viability at 56 pM (HT29 cells [4]; 0.000056 μM) of the same molecule?
A: The viability at 56 pM was 20.2%.

Q: What about the viability at 0.000169 µM (HT29 cells [4]; 0.000169 μM) of the same molecule?
A: Its viability at 0.000169 µM is 21.7%.

Q: What about the viability at 0.000508 µM (HT29 cells [4]; 0.000508 μM) of the same molecule?
A: The viability at 0.000508 µM was 21.7%.

Q: What about the viability at 0.001524 µM (HT29 cells [4]; 0.001524 μM) of the same molecule?
A: The viability at 0.001524 µM was 23.4%.

Q: And the viability at 0.004572 µM (HT29 cells [4]; 0.004572 μM)?
A: Its viability at 0.004572 µM is 36.3%.

Q: And the viability at 0.013717 µM (HT29 cells [4]; 0.013717 μM)?
A: Its viability at 0.013717 µM is 78.8%.

Q: What about the viability at 0.041152 µM (HT29 cells [4]; 0.041152 μM) of the same molecule?
A: The viability at 0.041152 µM was 96.7%.

Q: What about the viability at 0.123457 µM (HT29 cells [4]; 0.123457 μM) of the same molecule?
A: The viability at 0.123457 µM was 109%.

Q: What about the viability at 0.37037 µM (HT29 cells [4]; 0.370370 μM) of the same molecule?
A: The viability at 0.37037 µM was 110%.

Q: And the viability at 1.11111 µM (HT29 cells [4]; 1.111111 μM)?
A: Its viability at 1.11111 µM is 107%.

Q: And the viability at 3.33333 µM (HT29 cells [4]; 3.333333 μM)?
A: The viability at 3.33333 µM was 109%.

Q: And the viability at 10 µM (HT29 cells [4]; 10.000000 μM)?
A: The viability at 10 µM was 109%.

Q: What about the EC50 (HT29 cells [4]; HT29 treated with TSZ, 24 h, read-out: EC50) of the same molecule?
A: The EC50 was 10 nM.

Q: What about the survival rate (TNFα-induced SIRS [5]; 40 mg/kg i.p. 15 min before mTNFα 300 μg/kg i.v.) of the same molecule?
A: The survival rate was 90%.

Q: And the “1 means death, 0 means survival” value (TNFα-induced SIRS [5]; 40 mg/kg i.p., per animal)?
A: Its value is 1 and 0.

Q: And the “Time after mTNFα” value (TNFα-induced SIRS [5]; 40 mg/kg i.p., per animal, time of death or end of observation)?
A: Its value is 24 h and 72 h.

Q: And the “content of IL-1β in cultured colonic tissue supernatants” value (IL-1β; 40 mg/kg i.p., day 7)?
A: The value was “substantially reduced”.

Q: What about the IL-1β (IL-1β; Figure 9h, individual replicates 1-3) of the same molecule?
A: Its IL-1β is 46.88 pg/mL and 42.98 pg/mL and 47.29 pg/mL.

Q: And the “impact on mouse organs (H&E staining)” value ([6]; 250mg/kg)?
A: The value was “no obvious impact on different mouse organs”.

Q: And the tolerability observations ([6]; doses up to 250 mg/kg)?
A: Its tolerability observations is “no observed weight loss and no other side effects”.
